Where “and” joins values, the source holds several entries; their conditions need not be identical. Identical values can stand only once.

A word on the stoichiometry N: it is the number of molecules, sites or subunits per partner or assembly. Broadly, the Kd is a measure of binding affinity in units of concentration. Lower therefore signals higher affinity.

Assay [1] concerns the target cUMP-bound PycTIR (gel-filtration data). Nature of the assay: SEC; gel filtration of cUMP-bound PycTIR (Supplementary Fig. 10).
A further assay deals with NpPycTIRCNBD (Novosphingobium pentaromativorans, UniProt A0AAT8XUA9). Kind of assay: isothermal titration calorimetry. Type of assay: binding. The source says: isothermal titration calorimetry on NpPycTIRCNBD
A general note: Isothermal titration calorimetry measures the heat released or taken up as one component is titrated into another.

The next assay concerns the target T1, AnPycC (Anabaena sp. CA = ATCC 33047, UniProt A0ACD6BAV8).
T1 construct: full-length, thioredoxin-His tag cut by TEV, extra N-terminal Gly, E. coli BL21(DE3); monomer in solution, dimer in crystal
Nature of the assay: LC-MS/MS. In kind it is biochemical. To be noted: 0.5 mM UTP, 1 μM enzyme, pH 9.0, 25 °C overnight.

A further assay has as its target T2, AhPycTIRCNBD (Acinetobacter haemolyticus, UniProt N9FD06).
T2 construct: gene F927_00926
Nature of the assay: isothermal titration calorimetry. Type of assay: binding. The source says:
isothermal titration calorimetry on AhPycTIRCNBD

Another assay concerns the target T3, PsPycTIRCNBD (Pseudovibrio sp. W64, UniProt A0ACD6BAZ5).
T3 construct: dimer with cUMP
Nature of the assay: isothermal titration calorimetry. Type of assay: binding. An excerpt:
isothermal titration calorimetry on PsPycTIRCNBD

The target of assay [2] is SmPycTIRCNBD (Stenotrophomonas maltophilia). Nature of the assay: isothermal titration calorimetry. Type of assay: binding. An excerpt: isothermal titration calorimetry on SmPycTIRCNBD
In a further assay the target is T4, EaPycC (Elizabethkingia anophelis, UniProt A0AAT8XUA8).
T4 construct: full-length, thioredoxin-His tag cut by TEV, extra N-terminal Gly, E. coli BL21(DE3); homodimer
T4 sequence (A0AAT8XUA8 2-342): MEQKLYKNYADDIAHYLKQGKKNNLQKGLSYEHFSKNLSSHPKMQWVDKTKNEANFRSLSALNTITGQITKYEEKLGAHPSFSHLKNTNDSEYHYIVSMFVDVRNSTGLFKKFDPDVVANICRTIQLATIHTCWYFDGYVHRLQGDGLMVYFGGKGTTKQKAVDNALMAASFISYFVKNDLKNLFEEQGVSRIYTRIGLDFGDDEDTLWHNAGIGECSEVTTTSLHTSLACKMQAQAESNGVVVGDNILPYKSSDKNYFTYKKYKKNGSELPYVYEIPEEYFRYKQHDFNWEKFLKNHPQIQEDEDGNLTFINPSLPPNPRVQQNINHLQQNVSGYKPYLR
Nature of the assay: LC-MS/MS. Type of assay: biochemical. As to conditions: 0.5 mM CTP, 1 μM enzyme, 25 °C overnight.

NpPycTIRCNBD, sequence (A0AAT8XUA9 entry or part of it): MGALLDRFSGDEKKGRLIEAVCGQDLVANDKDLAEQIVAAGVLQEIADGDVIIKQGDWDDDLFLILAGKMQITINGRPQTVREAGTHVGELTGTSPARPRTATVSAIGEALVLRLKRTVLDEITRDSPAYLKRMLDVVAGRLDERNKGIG
T1 sequence (A0ACD6BAV8 1-280): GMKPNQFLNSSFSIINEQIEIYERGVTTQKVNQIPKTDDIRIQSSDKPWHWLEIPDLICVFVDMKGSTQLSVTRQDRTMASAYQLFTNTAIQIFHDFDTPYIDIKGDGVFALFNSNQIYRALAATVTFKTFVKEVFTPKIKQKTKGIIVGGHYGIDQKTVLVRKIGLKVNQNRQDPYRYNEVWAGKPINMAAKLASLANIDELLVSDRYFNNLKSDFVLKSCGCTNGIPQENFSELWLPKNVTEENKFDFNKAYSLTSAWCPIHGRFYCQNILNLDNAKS
T3 sequence (A0ACD6BAZ5 entry or part of it): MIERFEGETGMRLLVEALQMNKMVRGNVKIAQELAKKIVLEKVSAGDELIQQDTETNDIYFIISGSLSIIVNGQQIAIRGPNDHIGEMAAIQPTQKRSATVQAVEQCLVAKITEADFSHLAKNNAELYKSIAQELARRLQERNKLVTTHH
T2 sequence (N9FD06 entry or part of it): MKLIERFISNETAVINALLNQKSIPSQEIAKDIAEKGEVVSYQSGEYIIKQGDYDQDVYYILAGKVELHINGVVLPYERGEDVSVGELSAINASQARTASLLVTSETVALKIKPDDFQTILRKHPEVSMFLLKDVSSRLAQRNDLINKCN

cUMP-bound PycTIR (gel-filtration data): in assay [1], the stoichiometry N is 2 and 4.
For the compound `O=c1ccn([C@@H]2O[C@@H]3COP(=O)(O)O[C@H]3[C@H]2O)c(=O)[nH]1` [cUMP], the Kd worked out at 1 nM at NpPycTIRCNBD, 820 nM at AhPycTIRCNBD, 1 nM on PsPycTIRCNBD and 270 nM in assay [2]. Besides, the LC-MS/MS result on AnPycC is given as “The production of cUMP by purified AnPycC proteins was confirmed by LC-MS/MS”.
Regarding `Nc1ccn([C@@H]2O[C@@H]3COP(=O)(O)O[C@H]3[C@H]2O)c(=O)n1` [cCMP], at EaPycC, the LC-MS/MS entry is “an elution peak corresponding to the cCMP product was detected”.

Values taken from article PMC11224242, “Structural and functional characterization of cyclic pyrimidine-regulated anti-phage system” (Nature Communications, 2024).
